Assay [1] has as its system MCF7, estrogen receptor positive, human breast cancer cells. Put plainly: Cell Titer Blue in vitro cell viability assay, MCF7. Format: cell-based. The conditions noted are these: 72 h, MCF7 (DMEM), 3 days at 37° C. As for the experimental part:
(§1) FIG. 8: Dose Response curve for MBC0179 with MCF7 cells. Compound MBC0179 was incubated with MCF7, estrogen receptor positive, human breast cancer cells at the indicated concentrations for 3 days at 37° C. prior to Cell Titer Blue fluorescence-based cell viability assay. Normalized cell viability data, expressed as a percentage, are averaged from three biological replicates and standard error represented by error bars for each averaged data point (empty squares). The compound concentrations are represented on log scale on the x-axis in μM units. Data were analyzed using free software called DrFit, as described in Nature Scientific Reports, Article number: 14701, (2015). […]
(§2) The Cell Titer Blue reagent (available from Promega, Inc.) is a buffered solution containing resazurin, a compound that is converted to resorufin, a detectable fluorescent product, by metabolically active cells. The fluorescence intensity of resorufin product therefore serves as a proportional measure of the number of viable cells, permitting changes in cell viability within cancer or other cell lines to be monitored in response to the addition of cytotoxic or cytostatic agents. […] Metastases to the lungs may be conveniently quantified by a well-established clonogenic assay. […]
Background: The colour change of resazurin is a common sign of viable cells or microbes.

The subject of assay [2] is MDA-MB-468 triple-negative human breast cancer cells. Nature of the assay: Cell Titer Blue in vitro cell viability assay, MDA-MB-468. Format: cell-based. The conditions noted are these: 72 h, MDA-MB-468 (DMEM), 3 days at 37° C. The procedure: as §1, with “9:” for “8:”, “MDA-MB-468” for “MCF7”, “MDA-MB-468 triple-negative” for “MCF7, estrogen receptor positive,”
as §2

The subject of assay [3] is 4T1 mouse triple-negative breast cancer cells. Put plainly: Cell Titer Blue in vitro cell viability assay, 4T1. The class given is cell-based. The conditions noted are these: 72 h, 4T1 (RPMI), 3 days at 37° C. The procedure: as §1, with “16:” for “8:”, “4T1” for “MCF7”, “4T1 mouse triple-negative” for “MCF7, estrogen receptor positive, human”
as §2

Assay [4] concerns 4T1 murine breast cancer cell line-derived mammary tumors, metastasis to the lungs. Nature of the assay: 4T1 mouse breast cancer lung metastasis study (clonogenic assay). The class given is in vivo. As to conditions: Balb/c mice. The procedure:
FIG. 17: 4T1 Mouse Breast Cancer Lung Metastasis Study with MBC0179. Compound MBC0179 (in 7% w/v Cremophore EL/10% v/v ethanol/[…] vehicle) or vehicle only was administered intravenously to three groups of six Balb/c mice (8 week old) carrying 4T1 murine breast cancer cell line-derived mammary tumors, one week post-implantation. After twice weekly dosing for four weeks with vehicle (blue bar), 10 mg/kg (red bar) or 15 mg/kg (green bar) MBC0179, the mice were humanely euthanized according to IACUC guidelines and lungs excised for 4T1 colonogenic assay in order to provide a measure of 4T1 metastasis to the lungs. The colony counts were plotted, averaged and standard error calculated (error bars). […] Additonally, the percentage reduction in lung-derived 4T1 colonies between the vehicle and 15 mg/kg MBC0179 treatment group was calculated based on the average colony counts for each group, normalizing to the vehicle group, indicated on chart.
The Cell Titer Blue reagent (available from Promega, Inc.) is a buffered solution containing resazurin, a compound that is converted to resorufin, a detectable fluorescent product, by metabolically active cells. […] Metastases to the lungs may be conveniently quantified by a well-established clonogenic assay. […]

Non-standard residues stand in square brackets, D forms with d. Residues, ends and D or L forms follow the SMILES beside them. *: point of attachment. Palmitoyl = CCCCCCCCCCCCCCCC(=O)*

By IC50 is commonly meant the concentration that inhibits the measured activity by half. High values mean weaker potency in that assay, low ones greater potency in that assay. On to `CCCCCCCCCCCCCCCC(=O)N[C@H](Cc1c[nH]cn1)C(=O)N[C@@H](C(=O)OCC)C(C)C` [Compound 5, N-[N-(1-oxohexadecyl)-D-histidyl]-D-valine ethyl ester] (Palmitoyl-[dH]-[dV]-OEt), for which the IC50 in assay [1] came to 355 µM; in assay [2], 15.7 µM; in assay [3], 25.5 µM. For the same molecule, the “lung metastases (average 4T1 colony counts)” value in assay [4] (10 mg/kg and 15 mg/kg intravenous twice weekly vs vehicle) was “dose-dependent reduction in lung metastases”. In assay [4] (15 mg/kg intravenous twice weekly for four weeks vs vehicle, lung-derived 4T1 colonies, p=0.03, two-tailed t-test), the “percent reduction in lung metastases” value came out at 74.4%.

The record behind these values is US20240124520A1, “N-ACYLATED HISTIDINE DIPEPTIDES AS ANTICANCER AGENTS” (THE BOARD OF TRUSTEES OF THE LELAND STANFORD JUNIOR …, priority 2019, published 2024).
